In ChEMBL document CHEMBL1201862, “PubChem BioAssay data set” (2004):
The source made the active and inactive calls.

Experiments:
[1] = target: Kallikrein-7 (Homo sapiens, UniProt P49862); experiment: Fluorescence Intensity-based biochemical primary high throughput dose response assay to identify activators of kallikrein-7 (K7) zymogen.
[2] = Late stage counterscreen for inhibitors of Trypanosoma brucei methionyl tRNA synthetase (MetRS): Luminescence-based cell-based high throughput dose response assay to identify compounds that are cytotoxic to Jurkat human T lymphocyte cells.; assay type: functional
[3] = cells; assay type: functional, cell-based
[4] = target: T1, Trace amine-associated receptor 1 (Homo sapiens, UniProt Q96RJ0); experiment: Fluorescence-based cell-based high throughput dose response assay to identify agonists of the human trace amine associated receptor 1 (TAAR1).; assay type: functional
[5] = target: T1, Trace amine-associated receptor 1; experiment: Counterscreen for agonists of the human trace amine associated receptor 1 (hTAAR1): Fluorescence-based cell-based high throughput dose response assay to identify hTAAR1 agonist that also desensitize TAAR1 receptor response.; assay type: functional
[6] = cells; assay type: functional, cell-based; remark: listed apart in the source
[7] = target: Protein Wnt-3a (Mus musculus, UniProt P27467); experiment: SAR analysis of small molecule antagonists of Gli-SUFU in a Wnt3a luminescent reporter assay.; assay type: functional
[8] = NIH/3T3 fibroblast cytotoxicity, dose response, cytotoxicity control, cell-based, plate reader, dry powder, set 2 (AID 652280); assay type: functional; conditions: NIH3T3
[9] = inhibitors of non-replicating M. tuberculosis, dose response, luciferase, dry powder (AID 651619); assay type: functional; conditions: Mycobacterium tuberculosis
[10] = inhibitors of non-replicating M. tuberculosis, dose response, luciferase, dry powder (AID 651620); assay type: functional; conditions: Mycobacterium tuberculosis
[11] = A Cell-Based Confirmatory Screen for Compounds that Inhibit VEEV, TC-83 (3).; assay type: functional

T1 sequence (Q96RJ0 whole entry): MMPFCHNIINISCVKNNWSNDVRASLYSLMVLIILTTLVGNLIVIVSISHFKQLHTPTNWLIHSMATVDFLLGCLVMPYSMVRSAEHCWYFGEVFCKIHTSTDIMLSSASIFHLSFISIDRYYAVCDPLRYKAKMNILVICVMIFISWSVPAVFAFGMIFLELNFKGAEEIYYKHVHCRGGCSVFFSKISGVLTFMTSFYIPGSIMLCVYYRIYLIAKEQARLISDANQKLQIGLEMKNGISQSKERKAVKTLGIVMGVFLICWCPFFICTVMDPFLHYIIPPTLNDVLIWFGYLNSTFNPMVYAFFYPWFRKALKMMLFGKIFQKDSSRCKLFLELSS
Chain of Protein Wnt-3a (P27467 whole entry): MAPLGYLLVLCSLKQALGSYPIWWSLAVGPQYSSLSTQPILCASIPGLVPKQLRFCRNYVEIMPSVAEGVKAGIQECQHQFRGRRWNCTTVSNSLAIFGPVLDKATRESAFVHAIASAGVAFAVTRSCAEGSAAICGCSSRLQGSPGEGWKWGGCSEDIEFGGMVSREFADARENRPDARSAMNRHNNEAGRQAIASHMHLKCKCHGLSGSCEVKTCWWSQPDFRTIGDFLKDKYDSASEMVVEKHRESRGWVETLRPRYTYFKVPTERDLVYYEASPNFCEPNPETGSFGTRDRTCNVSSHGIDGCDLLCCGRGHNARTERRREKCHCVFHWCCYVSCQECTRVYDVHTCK
Chain of Kallikrein-7 (P49862 whole entry): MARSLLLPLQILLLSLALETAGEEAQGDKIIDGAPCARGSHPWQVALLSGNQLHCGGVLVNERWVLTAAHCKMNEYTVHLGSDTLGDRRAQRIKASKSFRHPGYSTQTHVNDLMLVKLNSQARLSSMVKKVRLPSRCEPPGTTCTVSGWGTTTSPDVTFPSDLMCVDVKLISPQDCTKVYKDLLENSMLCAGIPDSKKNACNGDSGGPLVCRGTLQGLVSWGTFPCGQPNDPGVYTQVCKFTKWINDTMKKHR

Cc1cc(=O)oc2c3c(cc(OCC(=O)NCc4ccncc4)c12)OC(C)(C)CC3
EC50 [1]: > 69.5 µM (inactive)

O=C(CC(=O)Nc1cccc(Cl)c1)NN=Cc1ccccc1
IC50 [2]: > 83.3 µM (inactive)

Cc1ccc2cc(CNCCc3ccccc3C)c(O)nc2c1
IC50 [3]: > 29.9 µM (inactive)
EC50 [4]: 2.34 µM (active)
IC50 [5]: 3.54 µM (active)
EC50 [6]: > 29.9 µM (inactive)

O=C(Nc1cc(N2CCNCC2)ncn1)c1ccccc1
IC50 [7]: > 21.8 µM (inactive)

Cc1ccccc1-c1ccc([C@H]2[C@H](CO)N3CCCCN(CC4CC4)C[C@@H]23)cc1
AC50 [8]: 3.99 µM (active)

Fc1ccc(-c2nnc(SCc3cn(-c4ccccc4)nn3)o2)cc1
IC90 [9]: 1 µM (active)
IC90 [10]: 1 µM (active)

O=C(Cc1ccccc1)Nc1nc2c(s1)CCCC2
IC50 [11]: 9.33 µM (active)
